The test system of experiment [1] is GDNF mRNA in MG-63 and U-2 OS cells. Put plainly: PCR of GDNF mRNA expression after cisplatin. Conditions: 10 and 20 μM of cisplatin, 24 h. The experiment is classed as cell-based, human. As for the experimental part: FIG. 7. GFRα1-mediated chemoresistance of osteosarcoma cells is independent of GDNF. (a) Quantitative real-time PCR of GDNF mRNA expression after cisplatin treatment. MG-63 and U-2 OS cells were treated with different concentrations of cisplatin for 24 h. (b-d) Cell viability was measured using the WST-1 assay. The values are represented as a mean±s.d.m. (n=3). (b) MG-63 cells were treated with PBS or GDNF (50 ng/ml) for 24 h. (c) Control and GFRα1-overexpressing cells were cultured and treated with PBS or GDNF for 24 h. (d) Control and GFRα1-overexpressing cells were treated and cultured with PBS only, Cisplatin, or Cisplatin+GDNF (50 ng/ml) for 24 h, respectively. […] Representative images of RFP-LC3 and GFP-LC3 puncta. Scale bar, 20 μm. Control and GFRα1-overexpressing MG-63 cells were transiently transfected with an RFP-GFP tandem fluorescent-tagged LC3 (RFP-GFP-LC3) and then treated with PBS (top two panels) or cisplatin (20 μM; bottom two panes) for 24 h. […] (f) Quantitative analysis of the number of yellow puncta and the number of RFP-LC3 puncta in the combined images of Control and GFRα1-overexpressing MG-63 cells treated with GDNF. […]
Semi-quantitative RT-PCR. […]

Experiment [2] concerns Src/AMPK signaling in MG-63 cells. Put plainly: Immunoblot of Src/AMPK/mTOR signaling. The experiment is classed as cell-based, human. The settings on record: cisplatin 20 μM, 24 hr. As for the experimental part:
FIG. 4. GFRα1 regulates autophagy by Src/AMPK signaling in osteosarcoma cells. (a-b) Immunoblot analysis of osteosarcoma cell lysates with antibodies specific for GFRα1, p-Src, Src, p-AMPK, AMPK, p-mTOR, mTOR, p-p70 S6Kinase, Beclin 1, HMGB1, LC3, and β-actin. (a) MG-63 and cells were treated with cisplatin (20 μM) for 24 hr. (b) Control and GFRα1-deficient MG-63 cells were treated with cisplatin (20 μM) for 24 hr. (c-e) Immunoblot analysis of osteosarcoma cell lysates with antibodies specific for GFRα1, p-Src, Src, p-AMPK, AMPK, LC3, and β-actin. (c) Control and Src-deficient MG-63 cells were treated with cisplatin (20 μM) for 24 hr. (d) MG-63 cells were cultured in the presence or absence of PP1 (5 μM) and then treated with cisplatin (20 μM) for 24 hr. (e) MG-63 cells were cultured in the presence or absence of Compound C and then treated with cisplatin (20 μM) for 24 hr. (f) Cell viability of MG-63 cells after cisplatin treatment in the presence of PP1. MG-63 cells were cultured with DMSO or PP1 (2, 5 μM) and then treated with cisplatin (20 μM) for 24 hr. Cell viability was measured using the WST-1 assay. The values are represented as a mean±s.d.m. (n=3). ** denotes p<0.05 by t-test. (g) Cell viability of MG-63 cells after cisplatin treatment in the presence of Compound C. MG-63 cells were cultured with DMSO or Compound C (5, 10 μM) and then treated with cisplatin (20 μM) for 24 hr. Cell viability was measured using the WST-1 assay. The values are represented as a mean±s.d.m. (n=3). ** denotes p<0.05 by t-test.
Immunoblotting. Cells were washed with PBS and lysed in RIPA Buffer (Pierce, Rockford, Ill.). The protein content was determined using a dye-binding microassay (Bio-Rad, Hercules, Calif.), and 10-50 μg protein per lane was electrophoresed on 4-12% SDS polyacrylamide gels. Proteins were blotted onto Hybond ECL membranes (Amersham Pharmacia Biotech, Piscataway, N.J.). Two protein ladders were used for molecular weight determination (GenDEPOT, Barker, Tex.). The blotted proteins were detected using an enhanced chemiluminescence detection system (iNtRON, Seoul, Korea). Data were quantified and analyzed with Image-J software.
Background: Immunoblotting shows a protein as a band on a membrane.

These results are taken from patent publication US20180171411A1, “GFRalpha1 AS A BIOMARKER FOR CISPLATIN-INDUCED CHEMORESISTANCE AND METASTASIS” (THE BOARD OF REGENTS OF THE UNIVERSITY OF TEXAS SYSTEM, priority 2015, published 2018).

Regarding `N.N.[Cl][Pt][Cl]` [cisplatin, Cis-Diamineplatinum(II) dichloride], in experiment [1], the “GDNF mRNA expression” value was “increase”. Besides, in experiment [2], the “level of phosphorylated AMPK” value is recorded as “increased”, the “level of phosphorylated S6K (P70-S6Kinase)” value is “decreased”, the “level of phosphorylated Src” value is given as “increased” and the “level of phosphorylated mTOR” value was “decreased”.
